# Source: US12708640B2, “Synergistic nutritional compositions for treating vestibular associated neurodegenerative diseases” (CELAGENEX RESEARCH (INDIA) PVT. LTD., priority 2021, dated 2026)
# What was measured:
# Assay type in all cases: in vivo, Albino Wistar rat
# [1] = Rat body weight in the sodium arsanilate vestibular dysfunction study; conditions: rats, group value
# Source text: (§1) “Evaluation of test substance on sodium arsanilate induced vestibular dysfunction (Vertigo disorder) in wistar rats”.
# (§2) • Test Species: Rat • Strain: Albino Wistar • Sex: Male/Female • Age: 6-8 Weeks • Body Weight: 180-200 g • Source: In house breed • Total No. of Animals: 42 Animals (7 groups of 6 animals each) • Feed: Normal chow diet (Purina lab diet 5L79 Rat and Mouse 18%) (PMI Nutrition International) Environmental Conditions:
# (§3) All the animals were acclimatized for at least 5 days under controlled environmental condition. Total 42 animals were divided into seven groups consisting of 6 animals per group. Normal control (G1) group receiving vehicle, disease control (G2) group receiving sodium arsanilate injection only, standard group (G3) receiving reference standard (vertin) and treatment groups G4, G5, G6 & G7 were treated with the test substances. All the groups (except normal control group) were induced with sodium arsanilate via intratymphanic injection. All the treatment groups were administered daily for 7 consecutive days.
# Individual body weights were recorded at receipt, on the day of randomization, on the first day of treatment before dosing and weekly once thereafter throughout the treatment period. The body weight changes for all the animals were calculated and reported along with the body weight data.
# [2] = system: sodium arsanilate induced vestibular dysfunction (Vertigo disorder) in wistar rats; assay: Contact righting reflex
# Source text: as §1
# (§4) Vestibular dysfunction was induced in rats by intratympanic injection of sodium arsanilate an ototoxic compound. Sodium arsanilate is an arsenic derivative and intratympanic injection result was vestibular nerve degeneration in brain stem with concomitant loss of labyrinthine righting and reduced postural support with exaggerated head dorsiflexion.
# as §3
# The rats were placed in a syringe core tube in a supine position, following which the recovery time for position correction to be recorded. Normal rats turned over their body position in a few seconds.
# [3] = system: sodium arsanilate induced vestibular dysfunction (Vertigo disorder) in wistar rats; assay: Air righting reflex (air reflecting index)
# Source text: as §1, §4, §3
# A sponge was spread on a flat surface and the animals were placed in a supine position in the air 50 cm away above the sponge, following which the animal was dropped horizontally.
# Four-legged smooth landing on the ground was considered as positive (normal animal), whereas the body or other regions landing first was considered vestibular dysfunction animals. The positive landing rate (%) of each rat in each group was recorded.
# [4] = system: sodium arsanilate induced vestibular dysfunction (Vertigo disorder) in wistar rats; assay: Open field test
# Source text: as §1, §4, §3
# The open-field was circular, with a diameter of 90 cm, and enclosed by a wall 30 cm high. The floor and wall of the open-field was black and the floor was divided into 25 equal area sections by thin white lines. The floor was covered with a transparent plastic coating. The open-field apparatus was located inside a large wooden frame which surrounded on all sides by black curtains. The field was illuminated by two 60-W fluorescent lights located 100 cm above the floor.
# At the start of each session the rats were placed in one of the peripheral sections of the open-field and the animal's behavior was monitored by an observer for 10 consecutive minutes. […] At the end of each session the rat was returned to its home cage and the floor of the open-field was cleaned and sponged over with a weak vinegar solution to remove any residual odors.
# [5] = Rat feed consumption in the sodium arsanilate vestibular dysfunction study; conditions: rats, group value
# Source text: as §1, §2, §3
# The feed consumption was calculated and reported on a daily basis throughout the study period.
# [6] = open field test, wrt. disease control G2
smiles,measurement,setting,value
"CNCCc1ccccn1 [Group 3, reference compound]","Body Weight, End of the treatment",[1]; after 7 days daily treatment,188.10 gm
same,"Body Weight, Initial",[1]; initial,186.83 gm
same,Contact righting reflex (time),"[2]; animal 1, recovery time for position correction",21 s
same,Contact righting reflex (time),"[2]; animal 2, recovery time for position correction",26 s
same,Contact righting reflex (time),"[2]; animal 3, recovery time for position correction",28 s
same,Contact righting reflex (time),"[2]; animal 4, recovery time for position correction",23 s
same,Contact righting reflex (time),"[2]; animal 5, recovery time for position correction",27 s
same,Contact righting reflex (time),"[2]; animal 6, recovery time for position correction",26 s
same,"Contact righting reflex (time), Average",[2]; group average of 6 animals,25.17 s
same,"contact righting reflex, improvement (wrt. the Disease Control)",[2]; wrt. the Disease Control,around 38%
same,Air Righting Reflex (% successfully righted within 5 s),[3]; animal 1,40%
same,"Air Righting Reflex, Successful out of 5","[3]; animal 1, end of 7-day treatment",2
same,Air Righting Reflex (% successfully righted within 5 s),[3]; animal 2,60%
same,"Air Righting Reflex, Successful out of 5","[3]; animal 2, end of 7-day treatment",3
same,Air Righting Reflex (% successfully righted within 5 s),[3]; animal 3,40%
same,"Air Righting Reflex, Successful out of 5","[3]; animal 3, end of 7-day treatment",2
same,Air Righting Reflex (% successfully righted within 5 s),[3]; animal 4,60%
same,"Air Righting Reflex, Successful out of 5","[3]; animal 4, end of 7-day treatment",3
same,Air Righting Reflex (% successfully righted within 5 s),[3]; animal 5,40%
same,"Air Righting Reflex, Successful out of 5","[3]; animal 5, end of 7-day treatment",2
same,Air Righting Reflex (% successfully righted within 5 s),[3]; animal 6,60%
same,"Air Righting Reflex, Successful out of 5","[3]; animal 6, end of 7-day treatment",3
same,"Air Righting Reflex (% of Rats that successfully righted themselves within 5 s), Average",[3]; group average of 6 animals,50.00%
same,Ambulation Score [the number of open-field sections entered by the rat],[4]; animal 1,200
same,Defecation [the number of fecal boli deposited in the open-field],[4]; animal 1,3
same,Grooming [the number of grooming bouts exhibited by the rat],[4]; animal 1,4
same,Rearing Responses [the number of times the animal raised both forefeet off the floor and extended its body],[4]; animal 1,5
same,Ambulation Score [the number of open-field sections entered by the rat],[4]; animal 2,210
same,Defecation [the number of fecal boli deposited in the open-field],[4]; animal 2,4
same,Grooming [the number of grooming bouts exhibited by the rat],[4]; animal 2,3
same,Rearing Responses [the number of times the animal raised both forefeet off the floor and extended its body],[4]; animal 2,4
same,Ambulation Score [the number of open-field sections entered by the rat],[4]; animal 3,215
same,Defecation [the number of fecal boli deposited in the open-field],[4]; animal 3,2
same,Grooming [the number of grooming bouts exhibited by the rat],[4]; animal 3,3
same,Rearing Responses [the number of times the animal raised both forefeet off the floor and extended its body],[4]; animal 3,6
same,Ambulation Score [the number of open-field sections entered by the rat],[4]; animal 4,230
same,Defecation [the number of fecal boli deposited in the open-field],[4]; animal 4,3
same,Grooming [the number of grooming bouts exhibited by the rat],[4]; animal 4,5
same,Rearing Responses [the number of times the animal raised both forefeet off the floor and extended its body],[4]; animal 4,4
same,Ambulation Score [the number of open-field sections entered by the rat],[4]; animal 5,220
same,Defecation [the number of fecal boli deposited in the open-field],[4]; animal 5,4
same,Grooming [the number of grooming bouts exhibited by the rat],[4]; animal 5,6
same,Rearing Responses [the number of times the animal raised both forefeet off the floor and extended its body],[4]; animal 5,5
same,Ambulation Score [the number of open-field sections entered by the rat],[4]; animal 6,225
same,Defecation [the number of fecal boli deposited in the open-field],[4]; animal 6,3
same,Grooming [the number of grooming bouts exhibited by the rat],[4]; animal 6,5
same,Rearing Responses [the number of times the animal raised both forefeet off the floor and extended its body],[4]; animal 6,4
same,"Ambulation Score [the number of open-field sections entered by the rat], Average",[4]; group average of 6 animals,216.67
same,"Defecation [the number of fecal boli deposited in the open-field], Average",[4]; group average of 6 animals,3.17
same,"Grooming [the number of grooming bouts exhibited by the rat], Average",[4]; group average of 6 animals,4.33
same,"Rearing Responses [the number of times the animal raised both forefeet off the floor and extended its body], Average",[4]; group average of 6 animals,4.67
same,% Improvement in Ambulation score wrt. G2,[4]; [6],13.91%
same,% Improvement in Defecation wrt. G2,[4]; [6],26.92%
same,% Improvement in Grooming wrt. G2,[4]; [6],44.68%
same,% Improvement in Rearing Responses wrt. G2,[4]; [6],43.75%
same,"Feed Consumption, 0 day",[5]; 0 day,15.33 gm
same,"Feed Consumption, 7th day",[5]; 7th day,16.00 gm
